Results as given in publication PMC11062899, “De novo development of small cyclic peptides that are orally bioavailable” (Nature Chemical Biology, 2023).
“And” between values parts separate entries of the source, which are not always exact repeats. Equal values may be shown once. Read-outs that look alike come from different tables or passages of the source.

Columns and labels:
[1] = target: T1, rat α-thrombin (Rattus norvegicus, UniProt P18292); test: Protease inhibition, Ki for rat α-thrombin (fluorogenic substrate Z-Gly-Gly-Arg-AMC); assay type: biochemical; settings: for slope normalized to DMSO, rat alpha thrombin inhibition / Rat alpha thrombin inhibition, slope normalized to DMSO: replicates R1-R3
T1 construct: rat α-thrombin (Molecular Innovations) were used at final concentrations of 2 nM and 3 nM; purchased Molecular Innovations
Summary of the method: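 Inhibition was measured as AMC fluorescence from 50 μM substrate, monitored for 30 min at 25 °C, relative to a peptide-free control. Human and rat enzymes were present at 2 nM and 3 nM final, respectively, in 50 mM Tris-HCl pH 7.4, 150 mM NaCl, 10 mM MgCl2, 1 mM CaCl2. Ki derives from fitted IC50 via Cheng–Prusoff.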

[2] = target: T2, porcine pepsin (Sus scrofa, UniProt P00791); test: Peptide stability in simulated gastric fluid (SGF); assay type: in vitro ADME; settings: pig, simulated gi fluid; 8 h, 37 °C, pH 1.2; read-out: Proteolytic stability: SGF (8 h) % remaining
T2 construct: 0.32 g of porcine pepsin (Sigma-Aldrich, P7125) was dissolved under gentle agitation; purchased Sigma-Aldrich P7125
Summary of the method: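 Peptide from a 1 mM DMSO stock was added to fluid pre-warmed at 37 °C. SGF was pH 1.2 NaCl with porcine pepsin (0.32 g per 100 ml), and SIF was pH 6.8 potassium phosphate with porcine pancreatin (1 g per 100 ml). Supernatant peptide was quantified by LC–MS, with residual expressed as T1/T0.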

[3] = Passive artificial membrane permeability (PAMPA);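 on Permeability% Average: top well sample relative to theoretical equilibrium sample by TIC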
[4] = Metabolic stability in rat liver microsomes (RLMs); settings: for TIC value of compound, metabolic stability RLM: replicates R1-R3; for microsomal CLint / half-life: rat, microsomes

T2 sequence (P00791 60-385): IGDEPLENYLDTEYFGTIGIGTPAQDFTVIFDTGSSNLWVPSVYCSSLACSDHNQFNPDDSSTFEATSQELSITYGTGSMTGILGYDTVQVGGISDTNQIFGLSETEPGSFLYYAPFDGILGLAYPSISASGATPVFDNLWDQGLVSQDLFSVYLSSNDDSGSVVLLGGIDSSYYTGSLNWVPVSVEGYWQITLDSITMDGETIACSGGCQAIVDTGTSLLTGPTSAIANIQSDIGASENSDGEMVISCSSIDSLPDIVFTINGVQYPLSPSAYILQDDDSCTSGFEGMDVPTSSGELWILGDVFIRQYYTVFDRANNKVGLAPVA

SMILES: O=C1C[C@H]2CCCN2C(=O)[C@H](Cc2ccccc2)NC(=O)[C@@H](NC(=O)c2ccc(Cl)s2)CCC=CCCCCN1 [peptide 43]
- slope normalized to DMSO, rat alpha thrombin inhibition ([1]; peptide 2.50E+01 uM): 4.6 and 8.1 and 4.9
- slope normalized to DMSO, rat alpha thrombin inhibition ([1]; peptide 3.05E-03 uM): 90.9 and 88.2 and 90.2
- slope normalized to DMSO, rat alpha thrombin inhibition ([1]; peptide 3.12E+00 uM): 7.5 and 10.1 and 7.1
- slope normalized to DMSO, rat alpha thrombin inhibition ([1]; peptide 3.81E-04 uM): 96.2 and 101.3 and 91.7
- slope normalized to DMSO, rat alpha thrombin inhibition ([1]; peptide 3.91E-01 uM): 12.4 and 9.5 and 6.1
- slope normalized to DMSO, rat alpha thrombin inhibition ([1]; peptide 4.77E-05 uM): 105.1 and 89.9 and 85.4
- slope normalized to DMSO, rat alpha thrombin inhibition ([1]; peptide 4.88E-02 uM): 32.8 and 33.4 and 28.7
- slope normalized to DMSO, rat alpha thrombin inhibition ([1]; peptide 5.00E+01 uM): 3.1 and 5.6 and 0.5
- slope normalized to DMSO, rat alpha thrombin inhibition ([1]; peptide 6.10E-03 uM): 72.5 and 78.4 and 84.7
- slope normalized to DMSO, rat alpha thrombin inhibition ([1]; peptide 6.25E+00 uM): 7.7 and -0.5
- slope normalized to DMSO, rat alpha thrombin inhibition ([1]; peptide 7.63E-04 uM): 95.8 and 97.3 and 89.3
- slope normalized to DMSO, rat alpha thrombin inhibition ([1]; peptide 7.81E-01 uM): 10.1 and 10.3 and 8.9
- slope normalized to DMSO, rat alpha thrombin inhibition ([1]; peptide 9.54E-05 uM): 96.1 and 92.0 and 94.2
- slope normalized to DMSO, rat alpha thrombin inhibition ([1]; peptide 9.77E-02 uM): 27.3 and 26.5 and 22.9
- Rat alpha thrombin inhibition, slope normalized to DMSO ([1]; peptide concentration 1.00E+02 uM): 5.4 and 5.2 and 4.3
- Rat alpha thrombin inhibition, slope normalized to DMSO ([1]; peptide concentration 1.19E-05 uM): 102.6 and 102.2 and 91.2
- Rat alpha thrombin inhibition, slope normalized to DMSO ([1]; peptide concentration 1.22E-02 uM): 54.9 and 61.5 and 61.2
- Rat alpha thrombin inhibition, slope normalized to DMSO ([1]; peptide concentration 1.25E+01 uM): 7.2 and 11.2 and 5.0
- Rat alpha thrombin inhibition, slope normalized to DMSO ([1]; peptide concentration 1.53E-03 uM): 90.8 and 92.4 and 84.4
- Rat alpha thrombin inhibition, slope normalized to DMSO ([1]; peptide concentration 1.56E+00 uM): 8.6 and 7.9 and 7.3
- Rat alpha thrombin inhibition, slope normalized to DMSO ([1]; peptide concentration 1.91E-04 uM): 101.3 and 100.0 and 99.0
- Rat alpha thrombin inhibition, slope normalized to DMSO ([1]; peptide concentration 1.95E-01 uM): 18.2 and 17.7 and 18.1
- Rat alpha thrombin inhibition, slope normalized to DMSO ([1]; peptide concentration 2.38E-05 uM): 104.9 and 102.6 and 101.9
- Rat alpha thrombin inhibition, slope normalized to DMSO ([1]; peptide concentration 2.44E-02 uM): 50.2 and 48.9 and 44.8
- Rat alpha thrombin inhibition, slope normalized to DMSO ([1]; peptide concentration 2.50E+01 uM): 4.6 and 8.1 and 4.9
- Rat alpha thrombin inhibition, slope normalized to DMSO ([1]; peptide concentration 3.05E-03 uM): 90.9 and 88.2 and 90.2
- Rat alpha thrombin inhibition, slope normalized to DMSO ([1]; peptide concentration 3.12E+00 uM): 7.5 and 10.1 and 7.1
- Rat alpha thrombin inhibition, slope normalized to DMSO ([1]; peptide concentration 3.81E-04 uM): 96.2 and 101.3 and 91.7
- Rat alpha thrombin inhibition, slope normalized to DMSO ([1]; peptide concentration 3.91E-01 uM): 12.4 and 9.5 and 6.1
- Rat alpha thrombin inhibition, slope normalized to DMSO ([1]; peptide concentration 4.77E-05 uM): 105.1 and 89.9 and 85.4
- Rat alpha thrombin inhibition, slope normalized to DMSO ([1]; peptide concentration 4.88E-02 uM): 32.8 and 33.4 and 28.7
- Rat alpha thrombin inhibition, slope normalized to DMSO ([1]; peptide concentration 5.00E+01 uM): 3.1 and 5.6 and 0.5
- Rat alpha thrombin inhibition, slope normalized to DMSO ([1]; peptide concentration 6.10E-03 uM): 72.5 and 78.4 and 84.7
- Rat alpha thrombin inhibition, slope normalized to DMSO ([1]; peptide concentration 6.25E+00 uM): 7.7 and -0.5
- Rat alpha thrombin inhibition, slope normalized to DMSO ([1]; peptide concentration 7.63E-04 uM): 95.8 and 97.3 and 89.3
- Rat alpha thrombin inhibition, slope normalized to DMSO ([1]; peptide concentration 7.81E-01 uM): 10.1 and 10.3 and 8.9
- Rat alpha thrombin inhibition, slope normalized to DMSO ([1]; peptide concentration 9.54E-05 uM): 96.1 and 92.0 and 94.2
- Rat alpha thrombin inhibition, slope normalized to DMSO ([1]; peptide concentration 9.77E-02 uM): 27.3 and 26.5 and 22.9
- Ki ([1]; purified peptide, mean and s.d. of three measurements, read-out: Ki rat α-thrombin): 11.1 ± 1.4 nM
- IC50 ([1]; single replicates R1-R3, read-out: Rat alpha thrombin inhibition, IC50): 17.1 nM and 20.2 nM and 23.1 nM
- Ki ([1]; single replicates R1-R3, read-out: Rat alpha thrombin inhibition, Ki): 9.46 nM and 11.2 nM and 12.8 nM
- remaining at 8 h [2]: 101 ± 12%
- PAMPA permeability: % permeability ([3]; 50 μM, 12–18 h, acceptor concentration relative to equilibrium): 66 ± 19%
- Permeability% (single replicates R1–R3) ([3]; 50 μM, 12 h (Fig. 6d)): 52.91% and 57.15% and 54.20%
- Permeability% Average ([3]; 50 μM, 12 h (Fig. 6d)): 54.8%
- Permeability% (single replicates R1–R3) ([3]; 50 μM, 13 h (Fig. 5d)): 79.02% and 44.84% and 74.28%
- Permeability% Average ([3]; 50 μM, 13 h (Fig. 5d)): 66.0%
- Papp at 50 μM ([3]; PAMPA, pH 7.4): 9.77 ×10⁻⁶ cm/s
- TIC value of compound, metabolic stability RLM ([4]; 0 min): 15121279 (2×) and 12636158
- TIC value of compound, metabolic stability RLM ([4]; 5 min): 12214985 and 10185041 and 10498454
- TIC value of compound, metabolic stability RLM ([4]; 15 min): 8936637 and 6181065 and 6718551
- TIC value of compound, metabolic stability RLM ([4]; 30 min): 4407741 and 2845968 and 2692424
- TIC value of compound, metabolic stability RLM ([4]; 60 min): 749207 and 393357 and 268692
- CL (ul/min/mg protein) in RLMs (single replicates R1–R3) ([4]; Fig. 5e source data): 82.7957 ul/min/mg protein and 93.0201 ul/min/mg protein and 80.07 ul/min/mg protein and 82.80 ul/min/mg protein and 93.02 ul/min/mg protein
- Half Life (min) in RLMs (single replicates R1–R3) ([4]; Fig. 5e source data): 16.74 min and 14.9 min
- Half Life, RLM ([4]; individual replicates R1-R3): 16.74 min and 14.9 min
- microsomal CLint ([4]; CL (ul/min/mg protein) in RLMs (single replicates R1–R3), Fig. 5e source data): 80.1 µL/min/mg
- microsomal CLint ([4]; Clearance (CL) in RLMs, calculated from half-life, mean and s.d. of three measurements): 85 ± 6 µL/min/mg
- half-life ([4]; Half Life (min) in RLMs (single replicates R1–R3), Fig. 5e source data): 17.3 min
- half-life ([4]; Half Life, RLM, individual replicates R1-R3): 17.3 min
- microsomal CLint ([4]; pH 7.4, CL (ul/min/mg protein) in RLMs Average, Fig. 5e source data): 85.3 µL/min/mg
- half-life ([4]; pH 7.4, Metabolic stability: Half life T1/2 (min), RLMs, mean and SD, three measurements): 16.3 ± 1 min
